Test results reported in patent US12403184B2, “Compositions and methods for treating neurodegenerative disroders” (priority 2018, dated 2025).
Where no end group is shown, it is not given here.

Columns and labels:
[1] = biological target: Drp1 (Homo sapiens, UniProt O00429); assay: Drp1 GTP hydrolysis in vitro; format: biochemical
Excerpt: Drp1 GTP hydrolysis was monitored as a function of time as described previously.

[2] = biological target: T1, ATAD3A (Homo sapiens, UniProt Q9NVI7, K135E); assay: ATAD3A dimerization by western blot, HEK293 cells; format: cell-based
T1 construct: expressed in transfected cells; host or cells: HEK293 cells
T1 sequence (Q9NVI7 51-586 K135E limits assumed): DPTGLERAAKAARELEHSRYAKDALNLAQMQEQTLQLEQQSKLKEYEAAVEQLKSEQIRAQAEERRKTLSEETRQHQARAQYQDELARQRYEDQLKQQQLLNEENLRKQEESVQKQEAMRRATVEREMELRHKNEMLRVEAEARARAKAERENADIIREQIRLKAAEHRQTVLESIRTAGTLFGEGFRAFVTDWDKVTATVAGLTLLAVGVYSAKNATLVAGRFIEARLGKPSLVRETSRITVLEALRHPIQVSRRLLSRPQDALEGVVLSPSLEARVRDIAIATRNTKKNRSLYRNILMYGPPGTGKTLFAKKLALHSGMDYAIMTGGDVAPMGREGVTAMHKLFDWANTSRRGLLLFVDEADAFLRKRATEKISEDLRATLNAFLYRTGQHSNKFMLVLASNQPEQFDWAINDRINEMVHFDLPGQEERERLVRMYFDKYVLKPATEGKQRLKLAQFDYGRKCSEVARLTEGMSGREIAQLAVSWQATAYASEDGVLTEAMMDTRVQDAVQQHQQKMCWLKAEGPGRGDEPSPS
Excerpt: Human ATAD3A was amplified from HEK293T cDNA samples through standard PCR methods, and then cloned into pCMV-Myc, pcDNA3.1 (+)-Flag, pEGFP-N1 vectors. ATAD3A truncated mutants were constructed using overlap cloning techniques. ATAD3A point mutant K358E, and K135 mutants (K135E, K135R, K135Q, and K135A) and S2S48 mutants were constructed by using QuickChange II Site-Directed Mutagenesis Kit (Agilent Technologies). Drp1 truncated mutants were described in our previous study. Cells were transfected with plasmids using TransIT®-2020 transfection reagent (Minis Bio LLC, Madison, WI) according to manufacturer's instruction.
To analyze dimerization of ATAD3A under non-reducing conditions, the cells or tissues were harvested and lysed with total lysates buffer. An equal amount of proteins was subject to 8% SDS-PAGE analysis in the presence or absence of β-mercaptoethanol (β-ME). For in vitro BMH crosslinking, the cell lysates were incubated with 1 mM BMH at r.t. for up to 25 min and quenched with 0.1% β-ME, followed by SDS-PAGE analysis. For in-vivo crosslinking, the cells were treated with cell-permeable crosslinker BMH (1 mM) for 20 min at 37° C. After crosslinking, the cells were quenched in PBS with 0.1% β-ME. For DSP crosslinking, the cells were treated with cell-permeable crosslinker for 5 min at 37° C., followed by quenching and washing with 10 mM Glycine in PBS. For formaldehyde (FA) crosslinking, the cells were incubated with PBS buffer containing 1% FA for 20 min at r.t., and the crosslinking reaction was terminated by washing in PBS containing 100 mM glycine. The cells were then lysed and subject to 8% SDS-PAGE analysis. For DTSSP crosslinking of proteins in mitochondrial fractions, isolated mitochondria samples were suspended in the mitochondrial lysis buffer (250 mM sucrose, 20 mM HEPES-NaOH, pH 7.5, 10 mM KCl, 1.5 mM MgCl2, 1 mM EDTA, 1 mM EGTA and protease inhibitor). An equal amount of crude mitochondria was incubated at 30° C. in the presence of 0.5 mM DTSSP. The cross-linking was terminated by the addition of SDS loading buffer. […]

[3] = test system: HdhQ111 cells; assay: Mitochondrial morphology (anti-Tom20 staining) in striatal cells; format: cell-based, mouse; details: 1 μM/day for 4 days, relative to TAT
Method: Mouse striatal cell lines HdhQ7 and Q111 cells are immortalized from knock-in mice carrying 7 and 111 CAG repeats, respectively, in the mouse htt gene. HdhQ7 and HdhQ111 purchased from CHDI Foundation were cultured in DMEM supplemented with 10% (v/v) heat-inactivated FBS, 1% (v/v) penicillin/streptomycin, and 400 μg/ml G418 at 33° C. with 5% CO2. Cells within 14 passages were used in all experiments.
Cells grown on coverslips were fixed with 4% paraformaldehyde for 20 mins at r.t., permeabilized with 0.1% Triton X-100 in PBS and blocked with 2% normal goat serum. The cells were then incubated with primary antibody (overnight, at 4° C.) followed by Alexa Fluor 568 or 488 secondary antibody (2 h, r.t.). After staining with Nuclei with Hoechst dye (1:10,000 dilution), the cells were mounted onto slides. The cells were imaged by Fluoview FV1000 microscopy (Olympus).

[4] = test system: mtDNA; assay: Measurement of mtDNA content; format: cell-based, mouse; details: HdhQ111 cells, relative to TAT
Method: Total DNA was isolated from cells using Blood and Cell culture kit (QIAGEN), and then subject to qPCR using QuantiTect SYBR Green (QIAGEN). Quantitative PCR was performed using nuclear primers (GAPDH or Tert) and mtDNA primers (mt-CO2, mt-ND2, mt-CO1 and D-loop). Three technical replicates were performed for each biological sample, and the mtDNA abundance of each replicate were normalized against nuclear DNA using the 2-ΔΔCT method.

[5] = test system: mtDNA; assay: Measurement of mtDNA lesion by quantitative PCR; format: cell-based, mouse; details: HdhQ111 cells, relative to TAT
Excerpt: Because the movement of the polymerase on the template is blocked at a lesion, qPCR amplification is inversely proportional to the presence of DNA damage. The level of mtDNA lesion will be calculated by comparing the 10 kb mtDNA fragment amplification, as described previously. To correct for the possible variations in the rate of mtDNA replication, the amplification of 10 kb mtDNA fragment was normalized to the 91 bp small mtDNA amplicon. Specifically, Total DNA was isolated as shown above. The amplification profile consisted of a 45-s denaturation at 94° C., 22 cycles of denaturation for 15 s at 94° C., annealing/extension at 64° C. for 12 min, and a final extension at 72° C. for 10 min.

Drp1, sequence (O00429 whole entry): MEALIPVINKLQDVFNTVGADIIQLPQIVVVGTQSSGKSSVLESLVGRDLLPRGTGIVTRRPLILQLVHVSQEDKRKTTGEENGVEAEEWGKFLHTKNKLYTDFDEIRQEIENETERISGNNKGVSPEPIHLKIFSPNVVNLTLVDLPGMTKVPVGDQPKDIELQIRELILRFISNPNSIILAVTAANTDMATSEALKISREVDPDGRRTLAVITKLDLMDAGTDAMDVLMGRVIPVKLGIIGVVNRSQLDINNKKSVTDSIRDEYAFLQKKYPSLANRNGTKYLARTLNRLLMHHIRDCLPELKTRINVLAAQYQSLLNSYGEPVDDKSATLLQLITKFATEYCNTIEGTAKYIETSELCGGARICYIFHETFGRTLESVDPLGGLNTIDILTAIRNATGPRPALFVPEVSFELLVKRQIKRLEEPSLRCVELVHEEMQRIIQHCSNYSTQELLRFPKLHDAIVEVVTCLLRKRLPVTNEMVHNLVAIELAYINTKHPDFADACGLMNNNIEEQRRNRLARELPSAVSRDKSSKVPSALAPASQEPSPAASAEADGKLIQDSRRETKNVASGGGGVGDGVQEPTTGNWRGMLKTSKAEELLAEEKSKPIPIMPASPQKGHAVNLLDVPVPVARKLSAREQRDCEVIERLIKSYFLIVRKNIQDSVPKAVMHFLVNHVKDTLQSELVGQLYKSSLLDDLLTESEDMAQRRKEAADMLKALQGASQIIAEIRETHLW

Substance: YGRKKRRQRRRGGEDKRKT-NH2 [DA1, YGRKKRRQRRR-GG-EDKRKT-NH2]
- Drp1 oligomerization-induced GTPase activity [1]: no effects
- dimerization of ATAD3A ([2]; HEK293 cells expressing ATAD3A acetyl-deficient mutant K135E): abolished
- dimerization of ATAD3A ([2]; HEK293 cells expressing ATAD3A ΔN50 mutant, 1 μM for 48 h): abolished
- dimerization of ATAD3A ([2]; normal cells or cells expressing ATAD3A wildtype): minor effect
- number of cells with fragmented mitochondria [3]: reduced
- mtDNA copy number [4]: increased
- mtDNA lesion [5]: diminished
